From ChEMBL document CHEMBL1133314, “Syntheses and biological evaluation of novel pseudomycin side-chain analogues. Part 2” (2000) come the findings set out here.

≈ marks a conversion by molar mass, not a printed value.

One assay concerns Aspergillus fumigatus. Briefly: Lowest concentration required to inhibit 90-100% of the visible growth of Aspergillus fumigatus. The assay is classed as functional.
The test system of assay [1] is Candida albicans. Briefly: Lowest concentration required to inhibit 90-100% of the visible growth of Candida albicans. The assay is classed as functional.
Assay [2] relates to Cryptococcus neoformans. Nature of the assay: Tested in vitro for lowest concentration required to inhibit 90-100% of the visible growth of Cryptococcus neoformans.
Assay [3] relates to Candida albicans. Briefly: Lowest concentration required to inhibit 90-100% of the visible growth of Candida albicans; Range is […]. In kind it is functional.
Assay [4] concerns Candida albicans. Nature of the assay: Lowest concentration required to inhibit 90-100% of the visible growth of Candida albicans; Range is 0.312-1.25. In kind it is functional.
Assay [5] relates to Candida albicans. Nature of the assay: Lowest concentration required to inhibit 90-100% of the visible growth of Candida albicans; Range is 0.625-1.25. In kind it is functional.
The test system of assay [6] is Cryptococcus neoformans. Briefly: Tested in vitro for lowest concentration required to inhibit 90-100% of the visible growth of Cryptococcus neoformans; Range is 0.02-0.078.

Take `C/C=C1\NC(=O)[C@H]([C@H](C)O)NC(=O)[C@H](CCN)NC(=O)[C@H](CCCCN)NC(=O)[C@H](CC(=O)O)NC(=O)[C@@H](CCN)NC(=O)[C@@H](NC(=O)C[C@@H](O)CCCCCCCCCCCCCCCCC)COC(=O)[C@H]([C@H](O)CCl)NC(=O)[C@H]([C@H](O)C(=O)O)NC1=O`: the results for the MIC against Aspergillus fumigatus, against Candida albicans [1] and in the assay on Cryptococcus neoformans [2] were over 20 µg/mL, 5 µg/mL (≈ 3.87 µM) and 5 µg/mL (≈ 3.87 µM), respectively.

On to `C/C=C1\NC(=O)[C@H]([C@H](C)O)NC(=O)[C@H](CCN)NC(=O)[C@H](CCCCN)NC(=O)[C@H](CC(=O)O)NC(=O)[C@@H](CCN)NC(=O)[C@@H](NC(=O)C[C@H](O)CCCCCCCCCCCCCCCCC)COC(=O)[C@H]([C@H](O)CCl)NC(=O)[C@H]([C@H](O)C(=O)O)NC1=O`, for which the MIC (usually the lowest concentration found to suppress growth) against Aspergillus fumigatus was 5 µg/mL (≈ 3.87 µM); against Candida albicans [1], 5 µg/mL (≈ 3.87 µM); with Cryptococcus neoformans [2] it was 1.25 µg/mL (≈ 0.968 µM).

For `C/C=C1\NC(=O)[C@H]([C@H](C)O)NC(=O)[C@H](CCN)NC(=O)[C@H](CCCCN)NC(=O)[C@H](CC(=O)O)NC(=O)[C@@H](CCN)NC(=O)[C@@H](NC(=O)C[C@H](O)CCCCCCCCCCCCCCC)COC(=O)[C@H]([C@H](O)CCl)NC(=O)[C@H]([C@H](O)C(=O)O)NC1=O`, the minimal inhibitory concentration (MIC) is 2.5 µg/mL (≈ 1.98 µM) in the assay on Aspergillus fumigatus, 0.625 µg/mL (≈ 0.495 µM) in the assay with Candida albicans [1] and 0.01 µg/mL (≈ 0.00791 µM) with Cryptococcus neoformans [2].

On to `C/C=C1\NC(=O)[C@H]([C@H](C)O)NC(=O)[C@H](CCN)NC(=O)[C@H](CCCCN)NC(=O)[C@H](CC(=O)O)NC(=O)[C@@H](CCN)NC(=O)[C@@H](NC(=O)C[C@@H](O)CCCCCCCCCCC)COC(=O)[C@H]([C@H](O)CCl)NC(=O)[C@H]([C@H](O)C(=O)O)NC1=O`, for which the minimal inhibitory concentration (MIC) in the assay on Aspergillus fumigatus was over 20 µg/mL; in the assay on Candida albicans [3], 5 µg/mL (≈ 4.14 µM).

`C/C=C1\NC(=O)[C@H]([C@H](C)O)NC(=O)[C@H](CCN)NC(=O)[C@H](CCCCN)NC(=O)[C@H](CC(=O)O)NC(=O)[C@@H](CCN)NC(=O)[C@@H](NC(=O)C[C@@H](O)CCCCCCCCCCCCCCC)COC(=O)[C@H]([C@H](O)CCl)NC(=O)[C@H]([C@H](O)C(=O)O)NC1=O`: the MIC with Aspergillus fumigatus stood at 10 µg/mL (≈ 7.91 µM); in the assay on Candida albicans [1], 2.5 µg/mL (≈ 1.98 µM); in the assay on Cryptococcus neoformans [2], 0.312 µg/mL (≈ 0.247 µM).

With `C/C=C1\NC(=O)[C@H]([C@H](C)O)NC(=O)[C@H](CCN)NC(=O)[C@H](CCCCN)NC(=O)[C@H](CC(=O)O)NC(=O)[C@@H](CCN)NC(=O)[C@@H](NC(=O)C[C@H](O)CCCCCCCCCCC)COC(=O)[C@H]([C@H](O)CCl)NC(=O)[C@H]([C@H](O)C(=O)O)NC1=O` [PSEUDOMYCIN B], the MIC against Aspergillus fumigatus is over 20 µg/mL; against Candida albicans [4], 1.25 µg/mL (≈ 1.03 µM).

Take `C/C=C1\NC(=O)[C@H]([C@@H](C)O)NC(=O)[C@H](CCN)NC(=O)[C@H](CCCCN)NC(=O)[C@H](CC(=O)O)NC(=O)[C@@H](CCN)NC(=O)[C@@H](NC(=O)CC(O)CCCCCCCCCCC)COC(=O)[C@H]([C@H](O)CCl)NC(=O)[C@H]([C@H](O)C(=O)O)NC1=O` (mixture of isomers): the MIC against Candida albicans [5] was 1.25 µg/mL; with Aspergillus fumigatus, over 20 µg/mL.

With `C/C=C1\NC(=O)[C@H]([C@@H](C)O)NC(=O)[C@H](CCN)NC(=O)[C@H](CCCCN)NC(=O)[C@H](CC(=O)O)NC(=O)[C@@H](CCN)NC(=O)[C@@H](NC(=O)CC(O)CCCCCCCCCCCCCCC)COC(=O)[C@H]([C@H](O)CCl)NC(=O)[C@H]([C@H](O)C(=O)O)NC1=O` (mixture of isomers), the MIC against Cryptococcus neoformans [6] stood at 0.02 µg/mL; against Aspergillus fumigatus it was 5 µg/mL; against Candida albicans [1], 1.25 µg/mL.

For `C/C=C1\NC(=O)[C@H]([C@@H](C)O)NC(=O)[C@H](CCN)NC(=O)[C@H](CCCCN)NC(=O)[C@H](CC(=O)O)NC(=O)[C@@H](CCN)NC(=O)[C@@H](NC(=O)CC(O)CCCCCCCCCCCCCCCCC)COC(=O)[C@H]([C@H](O)CCl)NC(=O)[C@H]([C@H](O)C(=O)O)NC1=O` (mixture of isomers), the MIC stood at 2.5 µg/mL against Aspergillus fumigatus, 10 µg/mL with Candida albicans [1] and 0.625 µg/mL with Cryptococcus neoformans [2].
